One data set concerns the target human Kv7.2 (Homo sapiens (Human), UniProt O43526). Briefly: SyncroPatch 384 electrophysiology, CHO cells stably expressing human Kv7.2. The class given is cell-based. The procedure:
(§1) The potency of Kv7 potentiators was determined using the SyncroPatch 384 (Nanion) high throughput electrophysiology platform.
(§2) CHO cells stably expressing either human Kv7.2, Kv7.4 or Kv7.5/7.3 under a constitutive CMV promoter were used for these studies. Cells were maintained in F12 Hams+1 mM L-glutamine (Hyclone) supplemented with 10% FBS (Sigma), 0.3×NEAA (Non-essential Gamino-acids) and 400 ug/ml G418 at 37° C. in 5% CO2. Cells were cultured in T-225 flasks (Nunc) for 2-3 days to reach 85-95% confluence prior to electrophysiological recording.
(§3) Earle's balanced salt solution (in mM): 135 NaCl, 5.4 KCl, 5 Glucose, 2 CaCl2, 1 MgCl2, 5 HEPES, pH 7.4. Seal enhancer solution (in mM): 90 NaCl, 3 KCl, 35 CaCl2, 10 MgCl2, 10 HEPES, pH 7.4. Extracellular recording solution (in mM): 71 NaCl, 70 NMDG, 13 KCl, 5 Glucose, 2 CaCl2, 1 MgCl2, 10 HEPES, pH 7.4. Intracellular recording solution (in mM): 130 KF, 20 KCl, 4 EGTA, 10 HEPES, 2 EDTA, 0.01 Escin, pH 7.2.
(§4) Cells were harvested for electrophysiological recording upon reaching appropriate confluence. Cells were first washed in DPBS (Hyclone, Cat #SH30028.03) and then 2 ml of Accutase (MP Biomedicals #1000449) was added at 28° C. until ˜90% of cells were suspended. F12 HAM's media+1 mM L-glutamine (Hyclone, SH30026.02) was then added to the flask to dilute the accutase. Cells were then triturated until a single cell suspension was achieved, a cell count was performed, and cells were centrifuged for 2 min. at 1,000 rpm. Media was then aspirated, and cells were resuspended in Earle's balanced salt solution to a concentration of 0.75×10^6 cells/ml and allowed to recover for 25 min at 10° C.
(§5) At the beginning of each assay, 20 μl of cell suspension was dispensed into each well of a multi-hole 384-well SyncroPatch chip by the onboard pipettor. Cell sealing was initiated, and seal enhancer solution was added to facilitate seal formation. Upon completion of sealing, cells were washed 3 times with extracellular recording solution and the assay voltage protocol was started. Human Kv7.2, Kv7.4 or Kv7.5/7.3 channels were evaluated using a voltage protocol in which cells were voltage-clamped at a holding potential of −60 mV. Potassium currents were continuously activated with a series of three voltage steps to −30 mV for 3 seconds, 40 mV for 1 second and −90 mV for 4 seconds with 12 seconds between successive voltage sweeps. Potassium currents were measured from the −90 mV repolarizing step. Baseline current was assessed for 3.5 minutes prior to the addition of 5.6 μM zinc pyrithione (1 μM for Kv7.4). Kv7.2, Kv7.4 or Kv7.5/7.3 current in the presence of zinc pyrithione was acquired over five minutes to allow channels to reach steady state activity prior to addition of test agents. Channel activity was monitored for three minutes preceding the addition of 30 μM ML-213 (3 minutes) to achieve maximum activation.
(§6) Data were collected on the SyncroPatch platform using PatchControl software (Nanion) and processed and analyzed using DataControl Software (Nanion). Percent activation was calculated from potassium current as follows: The average current for the 5 sweeps in the presence of zinc pyrithione immediately preceding test agent addition was taken as the ‘control’ data. Likewise, the average potassium current in the presence of test agents 5 sweeps immediately preceding addition of 30 μM ML-213 was determined for ‘drug’ data. The average potassium current 5 sweeps immediately prior to addition of 150 mM TEA+10 μM XE-991 was determined for ‘max activation’ data while average currents from 5 sweeps immediately following addition of TEA was determined for ‘max inhibition’ data. Percent activation for each of the 384-wells of a sealchip was calculated as ((‘drug’−‘max inhibition’)/(‘max activation’−‘max inhibition’))*100 with Pipeline Pilot (Accelrys). […]

A further data set deals with human Kv7.5/7.3 (Homo sapiens (Human), UniProt O43525+Q9NR82). Briefly: SyncroPatch 384 electrophysiology, CHO cells stably expressing human Kv7.5/7.3. The class given is cell-based. The following applies: Table A; for Kv7.5/7.3/Kv7.2 selectivity ratio: Kv7.5/7.3 EC50 over Kv7.2 EC50. The procedure:
as §1, §2, §3, §4, §5, §6

A further data set concerns the target human Kv7.4 (Homo sapiens (Human), UniProt P56696). Briefly: SyncroPatch 384 electrophysiology, CHO cells stably expressing human Kv7.4. The data set is classed as cell-based. Particulars: Table C; for Kv7.4/Kv7.2 selectivity ratio: Kv7.4 EC50 over Kv7.2 EC50. The procedure:
as §1, §2, §3
Cells were harvested for electrophysiological recording upon reaching appropriate confluence. Cells were first washed in DPBS (Hyclone, Cat #SH30028.03) and then 2 ml of Accutase (MP Biomedicals #1000449) was added at 28° C. until ˜90% of cells were suspended. F12 HAM's media+1 mM L-glutamine (Hyclone, SH30026.02) was then added to the flask to dilute the accutase. […]
At the beginning of each assay, 20 μl of cell suspension was dispensed into each well of a multi-hole 384-well SyncroPatch chip by the onboard pipettor. […] Human Kv7.2, Kv7.4 or Kv7.5/7.3 channels were evaluated using a voltage protocol in which cells were voltage-clamped at a holding potential of −60 mV. […] Potassium currents were measured from the −90 mV repolarizing step. Baseline current was assessed for 3.5 minutes prior to the addition of 5.6 μM zinc pyrithione (1 μM for Kv7.4). […] Channel activity was monitored for three minutes preceding the addition of 30 μM ML-213 (3 minutes) to achieve maximum activation.
as §6, with “data.” for “data. Percent activation for each of the 384-wells of a sealchip was calculated as ((‘drug’−‘max inhibition’)/(‘max activation’−‘max inhibition’))*100 with Pipeline Pilot (Accelrys).”
In general terms: In patch-clamp work, channel activity is measured electrically.

Data set [1] is described as follows: Human liver microsomal clearance. The class given is in vitro ADME. Particulars: both sexes, liver microsomes, Table B, 0.5 μM compound, 0.25 mg/mL microsomes, NADPH, 37° C., read-out: Human liver microsomal intrinsic clearance CLint. As for the experimental part: Pooled mixed gender human liver microsomes were purchased from BioIVT at a concentration of 20 mg protein/mL and stored at −80° C. Incubations were conducted in V-bottomed 350 μL polypropylene 96-well plates. Compounds were diluted in phosphate buffer (final concentrations 0.5 μM compound, 0.5% DMSO) and mixed with diluted liver microsomes (fc 0.25 mg/mL). This mixture was aliquoted onto the assay plate (six wells per compound) and pre-warmed at 37° C. for ten minutes. Addition of NADPH (fc 0.5 mM, final incubation volume 100 μL) to each well started the time course. Reactions were stopped at 0.5, 3, 5, 10, 20 & 30 minutes by addition of 150 μL acetonitrile containing internal standard (IS; 0.125 μg/mL daidzein) and stopped samples were removed to a clean polypropylene plate. At the end of the assay the plate was refrigerated for an hour and then centrifuged at 3000 rpm for 10 minutes at 4° C. A sample of the supernatant was removed to a fresh plate and diluted 10-fold with 50:50 acetonitrile:water, then heat sealed. Analysis was by liquid chromatography coupled with tandem mass spectrometry (LC-MS/MS) for analyte and IS levels. Ratios of the analyte and IS peak areas were generated for results calculation (IS ratio). Dextromethorphan and verapamil were included in each experiment as controls for high clearance compounds. IS ratio data were converted into natural log values which were plotted against time and a linear regression fit applied. The slope of the line was returned and converted into the elimination constant (kel) by multiplying by −1. The elimination constant was used to calculate the in vitro CLint: in vitro CLint (μL/min/mg protein) is kel* (1000/protein conc in mg/mL).
For orientation: Liver microsomes are a subcellular fraction often used to study metabolism.

Where [2] appears, read: Table 1, CHO cells, potassium current at -90 mV step, in presence of zinc pyrithione.

For orientation: EC50 means the midpoint of the concentration-response curve. Usually microsomal CLint stands for the rate of metabolic loss divided by the concentration.

Bounds are passed on as bounds.

human Kv7.5/7.3, sequence (Q9NR82 whole entry): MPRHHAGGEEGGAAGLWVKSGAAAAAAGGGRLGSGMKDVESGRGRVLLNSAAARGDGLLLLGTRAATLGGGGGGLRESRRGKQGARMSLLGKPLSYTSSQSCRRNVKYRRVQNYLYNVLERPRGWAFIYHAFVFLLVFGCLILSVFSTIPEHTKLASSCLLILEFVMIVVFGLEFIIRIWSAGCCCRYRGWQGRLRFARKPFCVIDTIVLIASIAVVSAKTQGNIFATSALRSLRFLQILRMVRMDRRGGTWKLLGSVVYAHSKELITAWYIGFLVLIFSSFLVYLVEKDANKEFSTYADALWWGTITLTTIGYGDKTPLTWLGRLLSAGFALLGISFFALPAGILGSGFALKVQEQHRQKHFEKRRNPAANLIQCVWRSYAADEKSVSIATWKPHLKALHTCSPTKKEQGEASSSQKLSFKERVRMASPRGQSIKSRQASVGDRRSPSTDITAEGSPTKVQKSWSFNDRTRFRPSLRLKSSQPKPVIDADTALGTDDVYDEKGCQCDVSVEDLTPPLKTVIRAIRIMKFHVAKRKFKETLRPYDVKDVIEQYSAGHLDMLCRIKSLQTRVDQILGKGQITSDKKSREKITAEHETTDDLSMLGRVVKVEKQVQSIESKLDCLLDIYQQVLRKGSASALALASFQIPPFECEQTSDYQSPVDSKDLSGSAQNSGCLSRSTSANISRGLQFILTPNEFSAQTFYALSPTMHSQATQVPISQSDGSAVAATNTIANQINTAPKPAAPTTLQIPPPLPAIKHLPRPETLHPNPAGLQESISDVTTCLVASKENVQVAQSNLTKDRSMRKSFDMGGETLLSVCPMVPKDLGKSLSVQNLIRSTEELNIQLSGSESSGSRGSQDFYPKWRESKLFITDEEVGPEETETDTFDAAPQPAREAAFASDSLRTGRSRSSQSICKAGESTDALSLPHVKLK
human Kv7.5/7.3, sequence (O43525 whole entry): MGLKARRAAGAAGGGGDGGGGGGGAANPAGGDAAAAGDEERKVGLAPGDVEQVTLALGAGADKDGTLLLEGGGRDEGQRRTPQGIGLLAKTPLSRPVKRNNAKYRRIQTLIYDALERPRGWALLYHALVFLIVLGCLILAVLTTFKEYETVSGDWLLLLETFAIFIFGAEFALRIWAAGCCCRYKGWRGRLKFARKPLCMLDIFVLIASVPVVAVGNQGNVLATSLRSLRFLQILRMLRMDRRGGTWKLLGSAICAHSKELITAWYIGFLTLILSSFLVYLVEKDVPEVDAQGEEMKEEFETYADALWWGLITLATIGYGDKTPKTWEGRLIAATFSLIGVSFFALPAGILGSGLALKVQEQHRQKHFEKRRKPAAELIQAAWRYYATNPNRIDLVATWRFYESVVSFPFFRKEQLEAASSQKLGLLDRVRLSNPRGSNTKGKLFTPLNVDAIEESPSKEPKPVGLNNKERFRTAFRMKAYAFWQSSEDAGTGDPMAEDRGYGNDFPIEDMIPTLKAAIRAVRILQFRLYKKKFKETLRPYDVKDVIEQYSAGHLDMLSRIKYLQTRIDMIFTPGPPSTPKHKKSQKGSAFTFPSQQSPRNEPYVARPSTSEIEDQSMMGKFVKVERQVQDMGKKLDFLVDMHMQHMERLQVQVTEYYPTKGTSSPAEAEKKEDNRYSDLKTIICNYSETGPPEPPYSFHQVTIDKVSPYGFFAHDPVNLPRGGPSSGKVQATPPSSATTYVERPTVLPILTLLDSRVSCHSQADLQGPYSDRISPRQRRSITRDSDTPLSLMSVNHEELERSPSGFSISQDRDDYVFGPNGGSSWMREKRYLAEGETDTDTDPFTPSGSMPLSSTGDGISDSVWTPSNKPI
human Kv7.4, sequence (P56696 whole entry): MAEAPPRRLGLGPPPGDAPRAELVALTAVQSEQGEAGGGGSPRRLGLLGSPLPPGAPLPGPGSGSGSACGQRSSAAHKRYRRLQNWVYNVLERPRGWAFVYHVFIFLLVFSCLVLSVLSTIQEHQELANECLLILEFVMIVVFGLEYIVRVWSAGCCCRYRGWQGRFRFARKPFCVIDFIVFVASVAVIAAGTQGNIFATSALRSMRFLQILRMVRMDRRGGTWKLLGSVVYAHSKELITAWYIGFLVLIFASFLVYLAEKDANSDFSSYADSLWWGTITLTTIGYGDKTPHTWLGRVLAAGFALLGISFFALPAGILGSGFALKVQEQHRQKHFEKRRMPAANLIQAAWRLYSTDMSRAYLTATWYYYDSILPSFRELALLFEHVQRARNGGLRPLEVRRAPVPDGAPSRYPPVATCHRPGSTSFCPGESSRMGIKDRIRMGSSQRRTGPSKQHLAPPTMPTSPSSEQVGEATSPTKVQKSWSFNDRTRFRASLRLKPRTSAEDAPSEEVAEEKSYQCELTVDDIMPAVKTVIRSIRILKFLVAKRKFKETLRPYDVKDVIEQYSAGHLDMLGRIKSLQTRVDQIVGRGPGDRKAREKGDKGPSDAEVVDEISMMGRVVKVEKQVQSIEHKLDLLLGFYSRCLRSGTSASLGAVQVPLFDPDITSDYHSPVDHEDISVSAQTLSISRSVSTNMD
human Kv7.2, sequence (O43526 whole entry): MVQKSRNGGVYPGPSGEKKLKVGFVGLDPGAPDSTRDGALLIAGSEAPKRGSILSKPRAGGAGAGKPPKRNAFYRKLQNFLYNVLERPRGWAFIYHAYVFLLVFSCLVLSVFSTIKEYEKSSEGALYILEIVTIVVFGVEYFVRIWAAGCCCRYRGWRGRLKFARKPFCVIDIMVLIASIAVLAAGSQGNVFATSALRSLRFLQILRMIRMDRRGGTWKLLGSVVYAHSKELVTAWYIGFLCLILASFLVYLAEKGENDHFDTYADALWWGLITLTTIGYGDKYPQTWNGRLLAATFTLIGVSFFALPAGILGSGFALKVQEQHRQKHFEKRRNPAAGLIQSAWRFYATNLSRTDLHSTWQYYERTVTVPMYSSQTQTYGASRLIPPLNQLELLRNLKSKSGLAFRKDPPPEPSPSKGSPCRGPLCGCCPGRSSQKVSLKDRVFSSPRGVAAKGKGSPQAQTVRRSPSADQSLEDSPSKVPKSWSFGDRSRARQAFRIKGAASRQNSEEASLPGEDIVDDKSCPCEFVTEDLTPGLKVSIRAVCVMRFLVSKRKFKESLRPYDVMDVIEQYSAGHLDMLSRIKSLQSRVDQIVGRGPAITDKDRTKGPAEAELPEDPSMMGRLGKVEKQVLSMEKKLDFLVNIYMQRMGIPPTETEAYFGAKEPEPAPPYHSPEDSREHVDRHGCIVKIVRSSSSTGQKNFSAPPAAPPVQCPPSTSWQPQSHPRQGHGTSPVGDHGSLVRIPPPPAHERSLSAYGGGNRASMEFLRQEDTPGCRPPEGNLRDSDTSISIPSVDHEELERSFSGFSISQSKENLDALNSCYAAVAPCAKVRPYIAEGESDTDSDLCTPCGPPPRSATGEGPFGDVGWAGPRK

Turning to `O=C(NCc1ccnc(OC(F)F)c1)N[C@@H]1CCOC2(CCC2)C1` [Example 27, 1-[[2-(difluoromethoxy)pyridin-4-yl]methyl]-3-[(8R)-5-oxaspiro[3.5]nonan-8-yl]urea], the EC50 at human Kv7.2 (setting [2]) is 260 nM; on human Kv7.2 (Table A), 260 nM; on human Kv7.2 (Table C), 260 nM; at human Kv7.5/7.3, above 30000 nM; on human Kv7.4, above 30000 nM. Also, at human Kv7.5/7.3, the Kv7.5/7.3/Kv7.2 selectivity ratio is on record as above 115. Moreover, the Kv7.4/Kv7.2 selectivity ratio on human Kv7.4 is above 115. Moreover, in data set [1], the microsomal CLint at 0.5 μM was 20.5 µL/min/mg.
For `O=C(NCc1ccnc(OC(F)F)c1)NC1CCOC2(CCCC2(F)F)C1` (centres unmarked) [Example 21, 1-[[2-(difluoromethoxy)pyridin-4-yl]methyl]-3-(4,4-difluoro-6-oxaspiro[4.5]decan-9-yl)urea], the EC50 on human Kv7.2 (setting [2]) was 210 nM; on human Kv7.2 (Table A), 210 nM; at human Kv7.2 (Table C) it was 210 nM; at human Kv7.5/7.3, above 30000 nM; on human Kv7.4 it was above 30000 nM. Besides, the Kv7.5/7.3/Kv7.2 selectivity ratio at human Kv7.5/7.3 is listed as above 146. For the same compound, the Kv7.4/Kv7.2 selectivity ratio at human Kv7.4 was above 143. For the same compound, the microsomal CLint at 0.5 μM in data set [1] was determined as 20.4 µL/min/mg.
Take `O=C(NCc1ccnc(OC(F)F)c1)NC1CCOC2(CCCC2)C1` (centres unmarked) [Example 14, 1-[[2-(difluoromethoxy)pyridin-4-yl]methyl]-3-(6-oxaspiro[4.5]decan-9-yl)urea]: the results for the EC50 on human Kv7.2 (setting [2]), at human Kv7.2 (Table A) and at human Kv7.5/7.3 were 260 nM, 260 nM and above 30000 nM, respectively. Also, the Kv7.5/7.3/Kv7.2 selectivity ratio at human Kv7.5/7.3 is above 116. Moreover, the microsomal CLint at 0.5 μM in data set [1] amounted to 20 µL/min/mg.
On to `O=C(NCc1ccnc(OC(F)F)c1)N[C@H]1CC2(CCC2)[C@@H]1O` (racemic) [Example 25, 1-[[2-(difluoromethoxy)pyridin-4-yl]methyl]-3-[rac-(2R,3R)-3-hydroxyspiro[3.3]heptan-2-yl]urea], for which the EC50 on human Kv7.2 (setting [2]) amounted to 740 nM. Also, at human Kv7.5/7.3, the EC50 is above 30000 nM and the Kv7.5/7.3/Kv7.2 selectivity ratio is recorded as above 41. Besides, the microsomal CLint at 0.5 μM in data set [1] is 14.2 µL/min/mg.
For the compound `O=C(NCc1ccnc(OC(F)F)c1)NC1COC2(CCC2)C1` (centres unmarked) [Example 22, 1-[[2-(difluoromethoxy)pyridin-4-yl]methyl]-3-(5-oxaspiro[3.4]octan-7-yl)urea], the EC50 at human Kv7.2 (setting [2]) came to 1440 nM. Moreover, in data set [1], the microsomal CLint at 0.5 μM worked out at 10.6 µL/min/mg.
In the case of `O=C(NCc1ccnc(OC(F)F)c1)NC1CCOC2(CCC2)C1` (centres unmarked) [Example 17, 1-[[2-(difluoromethoxy)pyridin-4-yl]methyl]-3-(5-oxaspiro[3.5]nonan-8-yl)urea], the EC50 on human Kv7.2 (setting [2]) was found to be 340 nM. In addition, on human Kv7.5/7.3, the EC50 was above 30000 nM and the Kv7.5/7.3/Kv7.2 selectivity ratio was above 87. Also, in data set [1], the microsomal CLint at 0.5 μM came to 3.8 µL/min/mg.
As for `O=C(NCc1ccnc(OCC(F)(F)F)c1)NC1CC2(CC2)C1` [Example 12, 1-spiro[2.3]hexan-5-yl-3-[[2-(2,2,2-trifluoroethoxy)pyridin-4-yl]methyl]urea], the EC50 at human Kv7.2 (setting [2]) is 170 nM. Moreover, the microsomal CLint at 0.5 μM in data set [1] came out at 15.2 µL/min/mg.
The corresponding values for `CC(F)(F)c1cc(CNC(=O)NC2CC3(CCC3)C2)ccn1` [Example 9, 1-[[2-(1,1-difluoroethyl)pyridin-4-yl]methyl]-3-spiro[3.3]heptan-2-ylurea] are 190 nM and 17.6 µL/min/mg.

Source of the values: US20240316020A1, “Novel Pyridine Compounds” (ICAGEN, LLC, priority 2021, published 2024).
